# From PubChem BioAssay AID1769 (NMMLSC, 2009)
# Biological target: glutathione S-transferase (Schistosoma japonicum GST tag binding GSH beads)
# Assay: GST–glutathione bead interaction interference profiling – biochemical, multiplex beads, flow cytometry, profiling panel (AID 1769);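 also: target is a GST and green fluorescent protein fusion captured on glutathione beads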
# Details: flow cytometry fluorescence
row,SMILES,EC50
1,O=C(CN1CCN(c2ccc(O)cc2)CC1)Nc1cc(S(=O)(=O)N2CCCCC2)ccc1Cl,19.1 µM
2,CCn1cc(C(=O)O)c(=O)c2cc(F)c(N/N=C/c3ccccc3)cc21,3.88 µM
3,CC(=O)Oc1ccc2c(c1)Oc1cc(OC(C)=O)ccc1C21OC(=O)c2ccccc21,1.51 µM
4,CCN1/C(=C/C=C/c2oc3ccc4ccccc4c3[n+]2CC)Oc2ccc3ccccc3c21,0.223 µM
5,N#Cc1c2nc3ccccc3nc2n2cc(NC(=O)c3ccc(F)cc3)ccc12,0.95 µM
6,COCCN1C(=O)/C(=C/c2ccc(N3CCCC3)cc2C)SC1=S,1.69 µM
7,Cc1ccc(NC(=O)Nc2ccnc(-c3cccnc3)n2)cc1,2.07 µM
8,COc1cc(OC)c(-c2c3cc(O)c(=O)cc-3oc3cc(O)c(O)cc23)cc1OC,0.258 µM
9,COc1cc2[nH]c(=S)nc(NCCc3ccc(C)cc3)c2cc1OC,0.334 µM
10,CCCCNc1nc(=S)[nH]c2cc(OC)c(OC)cc12,10.9 µM
11,O=c1c2c(-c3ccccc3)csc2nc2c3ccccc3c(NCCN3CCOCC3)nn12,1.84 µM
12,CN(/N=C/C=C/c1ccccc1)C1=NS(=O)(=O)c2ccccc21,6.02 µM
13,CC(C)(C)NC(=O)CCN(/N=C/c1ccc([N+](=O)[O-])o1)C1=NS(=O)(=O)c2ccccc21,3.39 µM
14,CCOC(=O)c1cc(C(=O)OCC)c(=O)[nH]c1N1CCCC1,35.9 µM
15,COc1ccc(OC)c(S(=O)(=O)Nc2ccc(O)c(Sc3ncn[nH]3)c2)c1,4.38 µM
16,O=C(Cc1ccc(Nc2nc(=S)[nH]c3ccccc23)cc1)NC1CCCCC1,6.65 µM
17,COc1ccc(-c2cc(-c3ccc(O)cc3)nc(N)c2C#N)cc1OC,11.5 µM
18,Oc1ccc(C2=Nn3c(nnc3-c3ccco3)SC2)cc1O,1.29 µM
19,O=C(OCC1O[C@@H](OC(=O)c2cc(O)c(O)c(O)c2)[C@@H](OC(=O)c2cc(O)c(O)c(O)c2)[C@@H](OC(=O)c2cc(O)c(O)c(O)c2)[C@@H]1OC(=O)c1cc(O)c(O)c(O)c1)c1cc(O)c(O)c(O)c1 (some centres undefined),0.951 µM
20,COc1cc2nc(=S)n(CCCN3CCOCC3)c(N)c2cc1OC,11 µM
21,Oc1ccc(/C=N/NC(=S)N/N=C/c2ccc(O)cc2)cc1,13.4 µM
22,Cc1cc2nc3c(=O)n(C4CCCCC4)c(=O)[nH]c3nc2cc1N,6.99 µM
23,Cc1cc(-c2nnc3n2N=C(c2ccc(-c4ccccc4)cc2)CS3)n[nH]1,6.8 µM
24,Cc1cc2nc3c(=O)[nH]c(=O)[nH]c3nc2c([N+](=O)[O-])c1N,1.18 µM
25,COc1ccc(-c2csc(NC(=S)NC(=O)c3cccs3)n2)cc1OC,1.33 µM
26,N#CCc1c(C#N)c(N)nc(N2CCN(C=O)CC2)c1C#N,15.7 µM
27,O=C(CSc1ccc2nnc(-c3cccs3)n2n1)N1CCCC1,1.3 µM

row,SMILES,EC50
1,O=C(O)c1cccc(-n2cccc2/C=C2/NC(=O)N(c3ccc(Cl)cc3)C2=O)c1,2.25 µM
2,CCN(CC)c1ccc(/C=C/C(=O)c2ccc(Br)cc2)cc1,11.2 µM
3,N#Cc1ccc2ccn(CC(=O)N3CCCc4ccccc43)c2c1,2.4 µM
4,Cc1c(CCC(=O)O)c(=O)oc2cc3occ(-c4ccc(F)cc4)c3cc12,70.5 µM
5,CCOc1ccc(CCNc2ccc3nnc(-c4ccccc4)n3n2)cc1OCC,2.29 µM
6,COc1ccc(/C=N/NC(=O)c2ccncc2)cc1Cn1nc([N+](=O)[O-])c(Br)c1C,9.22 µM
7,NS(=O)(=O)c1ccc(Nc2nc(-c3ccc(O)cc3O)cs2)cc1,2.29 µM
8,Nc1nc2c(c(=O)[nH]1)C(c1cccc3ccccc13)C1=C(N2)c2ccccc2C1=O (centres undefined),2.59 µM
9,O=C(O)c1cc(-c2ccc(/C=C3\NC(=O)N(c4ccc(Cl)cc4)C3=O)o2)ccc1Cl,11.8 µM
10,O=C(NCc1cccnc1)c1cccn2c(=O)c3sccc3nc12,25.2 µM
11,Nc1c([N+](=O)[O-])cc(-c2cnc[nH]2)cc1[N+](=O)[O-],0.391 µM
12,COc1ccc(N/C=C/c2nc(SC)nnc2C)cc1,2.76 µM
13,NC(=S)N=Nc1c(O)[nH]c2cc(F)c(F)cc12,15.6 µM
14,Fc1cccc(Nc2ncnc3[nH]ncc23)c1,45.1 µM
15,COc1ccccc1CNC(=O)c1c(N)n(CCCN2CCOCC2)c2nc3ccccc3nc12,4.43 µM
16,O=c1c2ccc([N+](=O)[O-])cc2ncn1Cc1ccccc1C(F)(F)F,7.62 µM
17,O=C1/C(=C/c2ccc(N3CCOCC3)o2)SC(=Nc2ccccc2)N1CCc1c[nH]c2ccccc12,0.0697 µM
18,Cc1ccc(O)c(N=Cc2cc(Cc3ccccc3)cc([N+](=O)[O-])c2O)c1,8.29 µM
19,CCC(C)N1C(=O)/C(=C/c2c(NCCCOC(C)C)nc3c(C)cccn3c2=O)SC1=S (centres undefined),0.201 µM
20,C=CCNc1nc(=S)[nH]c2cc(OC)c(OC)cc12,13.3 µM
21,Cc1nc(N/N=C/c2ccc(O)cc2)c2cnn(-c3ccccc3)c2n1,3.58 µM
22,CSc1nc2ccc(NC(=O)C3CC(=O)N(Cc4ccco4)C3)cc2s1 (centres undefined),46.9 µM
23,COc1ccc(S(=O)(=O)N2CCOCC2)cc1NC(=O)COc1cccnc1[N+](=O)[O-],64 µM
24,COc1cccc2cc(-c3ccnc(=S)[nH]3)oc12,28.8 µM
25,O=C(N/N=C(\c1ccccc1)c1ccccn1)c1cccc([N+](=O)[O-])c1,38.1 µM
26,O=c1c2ccccc2nc2c3ccccc3c(Cl)nn12,2.04 µM
27,COc1cc2ccccc2cc1C(=O)NC(=S)Nc1cccc(C(=O)O)c1,9.3 µM
